Results on two molecules are retold here after patent US4242330A, “Derivative of aspirin” (The University of Kentucky Research Foundation, priority 1979, dated 1980).

Data set [1] is described as follows: rate of hydrolysis by following the rate of appearance of aspirin in solution by high pressure liquid chromatography. The class given is physicochemical. To be noted: HPLC; pH and temperature not given. As for the experimental part: The rate of hydrolysis of 1-O-(2'-acetoxy)benzoyl-α-D-glucopyranose, i.e., the compound of the formula [drawing 4] was determined by following the rate of appearance of aspirin in a solution by high pressure liquid chromatography.

For data set [2] the following is noted: cited from earlier work.
Data set [3] can be described thus: rate of generation of aspirin via hydrolysis, determined spectrophotometrically at 285 nm. The class given is physicochemical. The settings on record: for half-life: buffer, read-out: half-life of hydrolysis to aspirin (t1/2); for half-life / half-life of hydrolysis to aspirin (t1/2): average of three determinations. As for the experimental part:
Therefore, the decrease in absorbance of a solution containing both the prodrug of this invention and aspirin observed at 285 nanometers upon adjustment of the pH to a value of six is proportional to the amount of aspirin in the solution.
Accordingly, the rate of generation of aspirin via hydrolysis of the derivative of the present invention was determined spectrophotometrically at 285 nm. Solutions of 1-O-(2'-acetoxy)benzoyl-α-D-2-deoxyglucopyranose in a buffered solution containing 5 mg/ml were freshly prepared and maintained at constant temperature in a circulating waterbath. […] Buffers employed were hydrochloric acid (pH 1 to 2), citrate (pH 3), acetate (pH 4 to 6) and phosphate (pH 7-9). Ionic strength was adjusted with potassium chloride (usually to 0.1). The change in absorbance at 285 nm was followed until no change in absorbance was observed. First order plots were constructed by plotting log (At -A.infin.) agains time. The effect of pH on the rate of hydrolysis was determined using solutions ranging from pH 1.2 to pH 9.
*Each halflife is the average of three determinations.

In the case of `CC(=O)Oc1ccccc1C(=O)O[C@H]1O[C@H](CO)[C@@H](O)[C@H](O)[C@H]1O` [1-O-(2'-acetoxy)benzoyl-α-D-glucopyranose], in data set [1], the half-life was 55 h. Besides, the hydrolysis product result in data set [2] (reaction scheme (II)) is given as “tends to hydrolyze so as to form the corresponding sugar derivative of salicylic acid”. Besides, in data set [2] (to the extent that hydrolysis to aspirin takes place), the “rate of hydrolysis to aspirin” value is reported as “very slow rate”.

In the case of `CC(=O)Oc1ccccc1C(=O)O[C@@H]1C[C@@H](O)[C@H](O)[C@@H](CO)O1` [1-O-(2'-acetoxy)benzoyl-α-D-2-deoxyglucopyranose], the half-life is 7 min in data set [3] (pH 3, pH 3, 37° C); 7.1 min in data set [3] (pH 4.6, pH 4.6, 37° C); 7 min in data set [3] (pH 8, pH 8, 37° C); 7 min in data set [3] (pH 9, pH 9, 37° C). Also, the “half-life of hydrolysis to aspirin (t1/2)” value was found to be 7.0 min in data set [3] (pH 6.4, 37° C) and 7.02 min in data set [3] (pH 8, 37° C). In addition, the “effect of pH on the generation of aspirin from the derivative” value in data set [3] (solutions ranging from pH 1.2 to pH 9) is recorded as “independent of the pH of the solutions”.
